IC50 data for 25 compounds are collected here from patent publication US20260216198A1, “GPR35 MODULATORS” (ThirtyFiveBio Limited, priority 2023, published 2026).

The target in this assay is T1, GPR35 (Homo sapiens, UniProt Q9HC97).
T1 construct: expressed in transfected cells; host or cells: CHO-K1 cells co-expressing mitochondrial aequorin and Gα16
T1 sequence (Q9HC97 whole entry): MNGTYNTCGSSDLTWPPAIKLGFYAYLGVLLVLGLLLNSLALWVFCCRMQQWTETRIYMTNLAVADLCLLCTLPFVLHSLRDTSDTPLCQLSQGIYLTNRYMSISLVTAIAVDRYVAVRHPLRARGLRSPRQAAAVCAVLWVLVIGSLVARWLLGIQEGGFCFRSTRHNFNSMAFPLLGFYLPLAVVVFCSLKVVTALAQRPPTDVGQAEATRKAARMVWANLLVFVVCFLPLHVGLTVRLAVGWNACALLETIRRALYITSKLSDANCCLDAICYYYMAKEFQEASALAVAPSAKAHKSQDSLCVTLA
Kind of assay: cellular GPR35 phospho-ERK HTRF assay (inhibition of lodoxamide-induced phospho-ERK signal). The class given is cell-based. To be noted: GPR35-CHO-K1-mt aequorin-Gα16 cell line; agonist lodoxamide at EC80; read-out: Activity Group (IC50, inhibition of GPR35 agonist-induced phospho-ERK signal). The source says: The functional GPR35 assay as described in the accompanying examples measures the ability of GPR35 modulators to inhibit a GPR35 agonist-induced phospho-ERK signal. This is expressed as the concentration of modulator required to reduce the phospho-ERK signal by 50 percent, i.e. the IC50; the signal window being defined as the difference between agonist plus modulator vehicle (no modulator) and agonist vehicle (no agonist) controls.
The functional assay described measures the ability of GPR35 modulators to inhibit a GPR35 agonist-induced phospho-ERK signal. This is expressed as the concentration of modulator required to reduce the phospho-ERK signal by 50 percent, i.e. the IC50; the signal window being defined as the difference between agonist plus modulator vehicle (no modulator) and agonist vehicle (no agonist) controls.
This assay is a cellular GPR35 phospho-ERK homogeneous time resolved fluorescence (HTRF) assay using the GPR35-CHO-K1-mt aequorin-Gα16 cell line. Upon activation of GPR35 with the agonist lodoxamide at EC80 concentration, ERK 1/2 is phosphorylated, and after lysis of the cell membrane, phospho-ERK1/2 (Thr202/Tyr204) is detected in a sandwich assay using two different specific antibodies, one labelled with Eu^3+-cryptate (donor) and the second with d2 (acceptor). When the dyes are in proximity, the excitation of the donor with a light source (laser or flash lamp) triggers a Fluorescence Resonance Energy Transfer (FRET) towards the acceptor, resulting in specific acceptor fluorescence (at 665 nm). The specific signal is directly proportional to the amount of phospho-ERK1/2 (Thr202/Tyr204) in the sample. Compounds that interfere with the levels of phospho-ERK1/2 (Thr202/Tyr204) will result in a low HTRF signal.
`Cc1ncc(-c2cc(C(=O)Nc3ccc(OCCc4ccccc4)cc3)ncn2)cc1C(=O)O` [Example 69, 2-Methyl-5-[6-[[4-(2-phenylethoxy)phenyl]carbamoyl]pyrimidin-4-yl]pyridine-3-carboxylic acid]: the IC50 was less than 1000 nM.
The result for `Cc1ncc(-c2ccnc(C(=O)Nc3ccc(OCCc4ccccc4)cc3)c2)cc1C(=O)O` [Example 70, 2-Methyl-5-[2-[[4-(2-phenylethoxy)phenyl]carbamoyl]-4-pyridyl]pyridine-3-carboxylic acid] reads less than 1000 nM.
The result for `Cc1ncc(-c2cc(C(=O)Nc3ccc(OCCc4ccccc4)cc3)cnn2)cc1C(=O)O` [Example 71, 2-Methyl-5-[5-[[4-(2-phenylethoxy)phenyl]carbamoyl]pyridazin-3-yl]pyridine-3-carboxylic acid] reads 1000 to 10000 nM.
The value for `Cc1ncc(-c2cc(C(=O)Nc3ccc(OCC4CC4)cc3)ccn2)cc1C(=O)O` [Example 72, 5-[4-[[4-(Cyclopropylmethoxy)phenyl]carbamoyl]-2-pyridyl]-2-methyl-pyridine-3-carboxylic acid] was 1000 to 10000 nM.
In the case of `Cc1ncc(-c2cc(C(=O)Nc3ccc(OCC4CC4)cc3)c(F)cn2)cc1C(=O)O` [Example 73, 5-[4-[[4-(Cyclopropylmethoxy)phenyl]carbamoyl]-5-fluoro-2-pyridyl]-2-methyl-pyridine-3-carboxylic acid], the IC50 lay in the range of 1000 to 10000 nM.
The value for `Cc1ncc(-c2cc(C(=O)Nc3ccc(COCc4ccccc4)cc3)ccn2)cc1C(=O)O` [Example 74, 5-[4-[[4-(Benzyloxymethyl)phenyl]carbamoyl]-2-pyridyl]-2-methyl-pyridine-3-carboxylic acid] was less than 1000 nM.
Regarding `Cc1cc(C(=O)Nc2ccc(COCc3ccccc3)cc2)cc(-c2cnc(C)c(C(=O)O)c2)n1` [Example 75, 5-[4-[[4-(Benzyloxymethyl)phenyl]carbamoyl]-6-methyl-2-pyridyl]-2-methyl-pyridine-3-carboxylic acid], the concentration for half-maximal inhibition (IC50) is less than 1000 nM.
As for `Cc1ncc(-c2cc(C(=O)Nc3ccc(COCc4ccccc4)cc3)c(F)cn2)cc1C(=O)O` [Example 76, 5-[4-[[4-(Benzyloxymethyl)phenyl]carbamoyl]-5-fluoro-2-pyridyl]-2-methyl-pyridine-3-carboxylic acid], the IC50 is less than 1000 nM.
The value for `Cc1ncc(-c2cc(C(=O)Nc3ccc(COCc4ccccc4)c(F)c3)ccn2)cc1C(=O)O` [Example 77, 5-[4-[[4-(Benzyloxymethyl)-3-fluoro-phenyl]carbamoyl]-2-pyridyl]-2-methyl-pyridine-3-carboxylic acid] was less than 1000 nM; that for `Cc1ncc(-c2cc(C(=O)Nc3ccc(COC4CC4)c(F)c3)ccn2)cc1C(=O)O` [Example 78, 5-[4-[[4-(Cyclopropoxymethyl)-3-fluoro-phenyl]carbamoyl]-2-pyridyl]-2-methyl-pyridine-3-carboxylic acid] was 1000 to 10000 nM.
The result for `Cc1ncc(-c2cc(C(=O)Nc3ccc(OCC4CC4)c(F)c3)ccn2)cc1C(=O)O` [Example 79, 5-[4-[[4-(Cyclopropylmethoxy)-3-fluoro-phenyl]carbamoyl]-2-pyridyl]-2-methyl-pyridine-3-carboxylic acid] reads 1000 to 10000 nM; that for `COc1ccc(-c2cnc(C)c(C(=O)O)c2)cc1C(=O)Nc1ccc(COCc2ccccc2)cc1` [Example 80, 5-[3-[[4-(Benzyloxymethyl)phenyl]carbamoyl]-4-methoxy-phenyl]-2-methyl-pyridine-3-carboxylic acid], less than 1000 nM; that for `COc1ccc(C(=O)Nc2ccc(COCc3ccccc3)cc2)cc1-c1cnc(C)c(C(=O)O)c1` [Example 81, 5-[5-[[4-(Benzyloxymethyl)phenyl]carbamoyl]-2-methoxy-phenyl]-2-methyl-pyridine-3-carboxylic acid], less than 1000 nM.
The value for `Cc1ccc(-c2cnc(C)c(C(=O)O)c2)cc1C(=O)Nc1ccc(COCc2ccccc2)cc1` [Example 82, 5-[3-[[4-(Benzyloxymethyl)phenyl]carbamoyl]-4-methyl-phenyl]-2-methyl-pyridine-3-carboxylic acid] was 1000 to 10000 nM; that for `Cc1ccc(C(=O)Nc2ccc(COCc3ccccc3)cc2)cc1-c1cnc(C)c(C(=O)O)c1` [Example 83, 5-[5-[[4-(Benzyloxymethyl)phenyl]carbamoyl]-2-methyl-phenyl]-2-methyl-pyridine-3-carboxylic acid] was less than 1000 nM.
For the compound `Cc1ncc(-c2ccc(F)c(C(=O)Nc3ccc(OCC4CC4)cc3)c2)cc1C(=O)O` [Example 84, 5-[3-[[4-(Cyclopropylmethoxy)phenyl]carbamoyl]-4-fluoro-phenyl]-2-methyl-pyridine-3-carboxylic acid], the IC50 is 1000 to 10000 nM.
The result for `Cc1ncc(-c2cc(C(=O)Nc3ccc(COCc4ccccc4)cc3)ccc2F)cc1C(=O)O` [Example 85, 5-[5-[[4-(Benzyloxymethyl)phenyl]carbamoyl]-2-fluoro-phenyl]-2-methyl-pyridine-3-carboxylic acid] reads less than 1000 nM; that for `Cc1ncc(-c2cccc(C(=O)Nc3ccc(COCc4ccccc4)cc3)c2F)cc1C(=O)O` [Example 86, 5-[3-[[4-(Benzyloxymethyl)phenyl]carbamoyl]-2-fluoro-phenyl]-2-methyl-pyridine-3-carboxylic acid], 1000 to 10000 nM.
`Cc1ncc(-c2ccc(F)c(C(=O)Nc3ccc(COCc4ccccc4)cc3)c2F)cc1C(=O)O` [Example 87, 5-[3-[[4-(Benzyloxymethyl)phenyl]carbamoyl]-2,4-difluoro-phenyl]-2-methyl-pyridine-3-carboxylic acid]: the concentration for half-maximal inhibition (IC50) lay within 1000 to 10000 nM.
The result for `Cc1ncc(-c2ccc(F)c(C(=O)Nc3ccc(COCC4CC4)c(F)c3)c2)cc1C(=O)O` [Example 88, 5-[3-[[4-(Cyclopropylmethoxymethyl)-3-fluoro-phenyl]carbamoyl]-4-fluoro-phenyl]-2-methyl-pyridine-3-carboxylic acid] reads less than 1000 nM.
The result for `Cc1ncc(-c2ccc(F)c(C(=O)Nc3ccc(OCC4CC4)c(F)c3)c2)cc1C(=O)O` [Example 89, 5-[3-[[4-(Cyclopropylmethoxy)-3-fluoro-phenyl]carbamoyl]-4-fluoro-phenyl]-2-methyl-pyridine-3-carboxylic acid] reads less than 1000 nM; that for `Cc1ncc(-c2ccc(F)c(C(=O)Nc3ccc(COCc4ccccc4)c(F)c3)c2)cc1C(=O)O` [Example 90, 5-[3-[[4-(Benzyloxymethyl)-3-fluoro-phenyl]carbamoyl]-4-fluoro-phenyl]-2-methyl-pyridine-3-carboxylic acid], less than 1000 nM; that for `Cc1ncc(-c2ccc(F)c(C(=O)Nc3ccc(COC4CC4)c(F)c3)c2)cc1C(=O)O` [Example 91, 5-[3-[[4-(Cyclopropoxymethyl)-3-fluoro-phenyl]carbamoyl]-4-fluoro-phenyl]-2-methyl-pyridine-3-carboxylic acid], 1000 to 10000 nM.
The value for `Cc1ncc(-c2ccc(F)c(C(=O)Nc3ccc(OC(C)C4CC4)c(F)c3)c2)cc1C(=O)O` (stereo not shown) [Example 92, 5-[3-[[4-(1-Cyclopropylethoxy)-3-fluoro-phenyl]carbamoyl]-4-fluoro-phenyl]-2-methyl-pyridine-3-carboxylic acid] was less than 1000 nM; that for `Cc1ncc(-c2ccc(F)c(C(=O)Nc3ccc(OC(C)C4CC4)c(C#N)c3)c2)cc1C(=O)O` (stereo not shown) [Example 93, 5-[3-[[3-Cyano-4-(1-cyclopropylethoxy)phenyl]carbamoyl]-4-fluoro-phenyl]-2-methyl-pyridine-3-carboxylic acid] was 1000 to 10000 nM.
